# Results reported in patent US11083770B2, “Medical preparation and method for enhancing tissue oxygenation in case of diabetic foot” (priority 2017, dated 2021).
# Peptide text beside a SMILES is read from it.
# What was measured:
# white mongrel rats = conditions: rat, in vivo
# white mongrel male mice = test: Acute toxicity, Kerber's method, single intramuscular dose
structure (smiles),measurement,setting,value
"N[C@@H](CCC(=O)O)C(=O)N[C@@H](Cc1c[nH]c2ccccc12)C(=O)O [L-Glu-L-Trp, L-glutamic-L-tryptophan acid] (H-Glu-Trp-OH; N-terminus and C-terminus assumed)",Side effects from long-term administration,white mongrel rats,absence of side effects
same,Acute toxic reactions,white mongrel male mice; doses exceeding the therapeutic dose by several thousand times,does not cause acute toxic reactions
same,Death of animals,"white mongrel male mice; mice, single i.m. 1, 2, 3, 4, 5 mg/kg, within 72 hours and further 14 days",Death of animals did not take place in any of the groups
